These results are taken from patent US20130030055A1, “COMPOSITIONS AND METHODS FOR TREATING HAIR LOSS, HAIR THINNING, AND HAIR COLOR LOSS” (priority 2010, published 2013).

The data set in a line: Open-label study: adverse events, periorbital darkening, biomicroscopy. The data set is classed as in vivo, human. An excerpt: Subjects were instructed to apply bimatoprost 0.03% to the eyelid lash line once daily for 12 weeks using an applicator (Studio Basics Professional Tools Eye Applicators, Paris Presents Incorporated, Gumee, Ill.) for each upper eyelid each evening and, if necessary, to wipe the areas immediately around the eyelid afterward to remove excess medication. Periodic use of artificial tears was allowed, but only prior to administration of bimatoprost 0.03%.
Clinical Examinations. Assessments were conducted at baseline and at weekly study visits at weeks 1, 4, 8, 12 (end of treatment period), and 16 (post-treatment follow-up period). At each visit, subjects underwent a complete eye examination by an ophthalmologist that included intraocular pressure measurements, visual acuity, and biomicroscopy. Subjects were queried at each visit for adverse events and these were recorded by the investigator. The presence of periorbital darkening was noted and graded on a scale of 0 to 4, and adverse event data were collected at each visit during the treatment period.
Health Outcomes Questionnaires. A questionnaire was used to track adverse events and to assess the subjects' satisfaction with treatment and their subjective evaluation of their eyelashes' appearance. Subjects were asked to answer all questions and return the questionnaire at weeks 4, 8, and 12. Subjects were also asked to respond verbally to 2 additional questions and their responses were recorded by site staff (FIGS. 1-4).

For the compound `CCNC(=O)CCC/C=C\C[C@@H]1[C@@H](/C=C/[C@@H](O)CCc2ccccc2)[C@H](O)C[C@@H]1O` [bimatoprost], for the setting “Week 1 (n = 24)”, the “Subjects Reported (n): Eye redness” value is listed as 2, the “Subjects Reported (n): Periorbital pigmentation changes” value is recorded as 0 and the “Subjects Reported (n): Possible brown eye shadow effect” value stood at 1. In addition, under “Week 4 (n = 27)”, the “Subjects Reported (n): Burning” value came out at 1; the “Subjects Reported (n): Dryness and tightness” value amounted to 1; the “Subjects Reported (n): Eye redness” value came to 4; the “Subjects Reported (n): Mild itchiness” value is 3. For the setting “Week 4 (n = 27)”, the “Subjects Reported (n): Periorbital pigmentation changes” value is listed as 3 and the “Subjects Reported (n): Periorbital redness” value is 1. For the same compound, for the setting “Week 8 (n = 20)”, the “Subjects Reported (n): Burning” value came out at 2; the “Subjects Reported (n): Mild itchiness” value turned out to be 2; the “Subjects Reported (n): Periorbital pigmentation changes” value amounted to 1; the “Subjects Reported (n): Redness and dryness” value amounted to 1. For the same compound, where the note is “Week 12 (n = 23)”, the “Subjects Reported (n): Dryness and darkening” value is 1; the “Subjects Reported (n): Eye redness” value came out at 1; the “Subjects Reported (n): Eyelid redness” value is reported as 1; the “Subjects Reported (n): Itching” value amounted to 1. For the same compound, for the setting “Week 12 (n = 23)”, the “Subjects Reported (n): Periorbital pigmentation changes” value amounted to 3; the “Subjects Reported (n): Red and sore” value is 1. The “Hyperemia on biomicroscopy examination” value (any subject at any visit) is “not observed”. For the same compound, the “Subjects with periorbital darkening” value (during the course of the study, 28 subjects) came to 18%. Under “of 28 subjects”, the “Subjects whose pigmentation changes were noted as possible, slight or a little” value turned out to be 11%. The “Serious or unexpected adverse events” value (whole study) is listed as “no serious or unexpected adverse events”.
